One assay has as its system Helix pomatia. As to the kind of experiment: Inhibition of snail beta-mannosidase assessed as reduction of p-nitrophenol release using p-nitrophenyl-glycoside as substrate at 1000 uM by spectrophotometric analysis.
In assay [1] the target is Lysosomal alpha-glucosidase (Homo sapiens) (UniProt P10253). As to the kind of experiment: Inhibition of human lysosomal alpha-glucosidase assessed as reduction of p-nitrophenol release using p-nitrophenyl-glycoside as substrate at 1000 uM by spectrophotometric analysis. Particulars: Lysosome.
For assay [2], the target named is Sucrase-isomaltase, intestinal (Rattus norvegicus, UniProt P23739). As to the kind of experiment: Inhibition of rat small intestinal sucrase assessed as reduction of p-nitrophenol release using p-nitrophenyl-glycoside as substrate by spectrophotometric analysis. Format: tissue-based, Small intestine.
Sequence of Sucrase-isomaltase, intestinal (P23739 1-1013 limits assumed): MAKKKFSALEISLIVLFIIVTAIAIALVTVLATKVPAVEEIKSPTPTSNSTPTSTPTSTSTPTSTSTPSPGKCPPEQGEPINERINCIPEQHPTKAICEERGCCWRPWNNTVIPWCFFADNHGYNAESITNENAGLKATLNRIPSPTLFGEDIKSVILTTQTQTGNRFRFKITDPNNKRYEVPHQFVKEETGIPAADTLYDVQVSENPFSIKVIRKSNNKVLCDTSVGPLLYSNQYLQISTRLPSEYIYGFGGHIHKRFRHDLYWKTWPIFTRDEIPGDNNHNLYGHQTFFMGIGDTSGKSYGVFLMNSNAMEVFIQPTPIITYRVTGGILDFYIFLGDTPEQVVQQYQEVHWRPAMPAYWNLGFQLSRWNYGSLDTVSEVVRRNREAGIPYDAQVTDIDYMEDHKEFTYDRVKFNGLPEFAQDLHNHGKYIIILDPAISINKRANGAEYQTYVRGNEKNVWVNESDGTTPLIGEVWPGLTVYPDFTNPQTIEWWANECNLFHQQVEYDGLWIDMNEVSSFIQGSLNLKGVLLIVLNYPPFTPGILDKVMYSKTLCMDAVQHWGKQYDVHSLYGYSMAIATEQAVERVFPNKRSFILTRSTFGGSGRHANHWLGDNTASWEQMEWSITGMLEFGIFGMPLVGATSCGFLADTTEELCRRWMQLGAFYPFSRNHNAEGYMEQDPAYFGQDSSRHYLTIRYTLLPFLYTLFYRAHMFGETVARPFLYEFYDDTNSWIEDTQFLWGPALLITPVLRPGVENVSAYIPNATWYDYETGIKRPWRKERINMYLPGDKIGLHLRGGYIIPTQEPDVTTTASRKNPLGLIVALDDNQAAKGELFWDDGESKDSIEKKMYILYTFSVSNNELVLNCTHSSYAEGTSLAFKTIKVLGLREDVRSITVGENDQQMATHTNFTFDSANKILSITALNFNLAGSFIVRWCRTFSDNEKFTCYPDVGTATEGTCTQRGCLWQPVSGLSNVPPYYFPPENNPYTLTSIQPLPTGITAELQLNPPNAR
Sequence of Sucrase-isomaltase, intestinal (P23739 1014-1841 limits assumed): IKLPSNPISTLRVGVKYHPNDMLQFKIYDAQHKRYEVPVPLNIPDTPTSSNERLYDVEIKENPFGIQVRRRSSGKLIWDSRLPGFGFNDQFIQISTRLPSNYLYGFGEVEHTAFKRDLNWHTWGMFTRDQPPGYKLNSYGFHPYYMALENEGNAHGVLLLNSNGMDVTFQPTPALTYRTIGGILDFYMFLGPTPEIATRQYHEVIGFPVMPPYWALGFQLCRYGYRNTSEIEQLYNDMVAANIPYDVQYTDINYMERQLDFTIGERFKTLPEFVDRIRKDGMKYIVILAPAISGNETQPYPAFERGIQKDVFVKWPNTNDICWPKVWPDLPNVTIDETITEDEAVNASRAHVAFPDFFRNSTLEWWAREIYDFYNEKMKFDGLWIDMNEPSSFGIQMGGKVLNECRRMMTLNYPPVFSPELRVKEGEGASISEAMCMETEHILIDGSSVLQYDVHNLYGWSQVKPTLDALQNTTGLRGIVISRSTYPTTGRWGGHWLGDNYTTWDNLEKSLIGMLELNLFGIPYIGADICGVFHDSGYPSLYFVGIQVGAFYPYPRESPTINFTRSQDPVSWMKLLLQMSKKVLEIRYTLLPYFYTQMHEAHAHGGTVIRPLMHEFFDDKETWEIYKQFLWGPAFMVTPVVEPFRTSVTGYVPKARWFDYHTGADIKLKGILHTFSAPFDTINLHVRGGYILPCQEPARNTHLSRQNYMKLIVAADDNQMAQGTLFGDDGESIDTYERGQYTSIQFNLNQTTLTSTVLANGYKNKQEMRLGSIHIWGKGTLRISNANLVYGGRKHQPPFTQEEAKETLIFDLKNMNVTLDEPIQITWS
A further assay deals with Prunus dulcis. As to the kind of experiment: Inhibition of almond beta-glucosidase assessed as reduction of p-nitrophenol release using p-nitrophenyl-glycoside as substrate at 1000 uM by spectrophotometric analysis.
Assay [3] concerns the target Alpha-galactosidase (Coffea arabica) (UniProt Q42656). As to the kind of experiment: Inhibition of coffee beans alpha-galactosidase assessed as reduction of p-nitrophenol release using p-nitrophenyl-glycoside as substrate at 1000 uM by spectrophotometric analysis.
The species entered for the next assay is Sus scrofa. The assay is described as follows: Inhibition of porcine kidney alpha-trehalase assessed as reduction of p-nitrophenol release using p-nitrophenyl-glycoside as substrate at 1000 uM by spectrophotometric analysis. Type of assay: tissue-based.
The next assay concerns Saccharomyces cerevisiae. The assay is described as follows: Inhibition of yeast alpha-glucosidase assessed as reduction of p-nitrophenol release using p-nitrophenyl-glycoside as substrate at 1000 uM by spectrophotometric analysis.
Assay [4] is described as follows: Inhibition of Penicillium decumbens alpha-L-rhamnosidase assessed as reduction of p-nitrophenol release using p-nitrophenyl-glycoside as substrate by spectrophotometric analysis.
Another assay relates to Oryza sativa. The assay is described as follows: Inhibition of rice alpha-glucosidase assessed as reduction of p-nitrophenol release using p-nitrophenyl-glycoside as substrate at 1000 uM by spectrophotometric analysis.
A further assay has as its system Aspergillus niger. The assay is described as follows: Inhibition of Aspergillus niger amyloglucosidase assessed as reduction of p-nitrophenol release using p-nitrophenyl-glycoside as substrate at 1000 uM by spectrophotometric analysis.
Assay [5] deals with T1, Alpha-mannosidase (Canavalia ensiformis) (UniProt C0HJB3).
T1 sequence (whole entry): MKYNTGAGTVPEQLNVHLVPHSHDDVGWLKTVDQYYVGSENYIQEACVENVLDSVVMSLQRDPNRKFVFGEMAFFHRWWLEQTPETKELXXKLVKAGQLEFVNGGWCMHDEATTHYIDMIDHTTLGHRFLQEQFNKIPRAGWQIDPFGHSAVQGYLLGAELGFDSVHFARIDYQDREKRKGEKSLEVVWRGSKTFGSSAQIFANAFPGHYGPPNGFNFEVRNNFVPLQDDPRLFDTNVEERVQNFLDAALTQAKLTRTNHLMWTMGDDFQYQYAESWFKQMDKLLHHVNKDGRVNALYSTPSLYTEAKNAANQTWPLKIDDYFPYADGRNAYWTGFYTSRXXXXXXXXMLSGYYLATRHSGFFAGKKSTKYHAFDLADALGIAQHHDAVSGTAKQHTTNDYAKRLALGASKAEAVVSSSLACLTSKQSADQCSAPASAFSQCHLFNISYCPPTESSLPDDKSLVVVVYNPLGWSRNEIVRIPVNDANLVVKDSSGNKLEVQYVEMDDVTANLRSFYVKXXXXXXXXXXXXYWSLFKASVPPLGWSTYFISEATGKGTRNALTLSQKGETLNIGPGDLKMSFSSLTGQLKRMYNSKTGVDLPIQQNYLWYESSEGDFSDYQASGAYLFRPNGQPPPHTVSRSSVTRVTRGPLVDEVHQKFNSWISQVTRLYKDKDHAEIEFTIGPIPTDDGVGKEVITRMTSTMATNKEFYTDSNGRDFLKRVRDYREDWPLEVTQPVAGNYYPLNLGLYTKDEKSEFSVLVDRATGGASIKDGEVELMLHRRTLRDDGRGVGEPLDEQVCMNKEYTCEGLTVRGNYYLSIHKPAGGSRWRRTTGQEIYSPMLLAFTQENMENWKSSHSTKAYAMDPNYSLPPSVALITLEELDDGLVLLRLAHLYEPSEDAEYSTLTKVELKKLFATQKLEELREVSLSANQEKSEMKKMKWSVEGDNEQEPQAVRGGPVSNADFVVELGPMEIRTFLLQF
The assay is described as follows: Inhibition of jack bean alpha-mannosidase assessed as reduction of p-nitrophenol release using p-nitrophenyl-glycoside as substrate at 1000 uM by spectrophotometric analysis.

The species entered for assay [6] is Bos taurus. The assay is described as follows: Inhibition of bovine liver beta-glucosidase assessed as reduction of p-nitrophenol release using p-nitrophenyl-glycoside as substrate at 1000 uM by spectrophotometric analysis.
The target in assay [7] is T2, Tissue alpha-L-fucosidase (Bos taurus) (UniProt Q2KIM0).
T2 sequence (whole entry): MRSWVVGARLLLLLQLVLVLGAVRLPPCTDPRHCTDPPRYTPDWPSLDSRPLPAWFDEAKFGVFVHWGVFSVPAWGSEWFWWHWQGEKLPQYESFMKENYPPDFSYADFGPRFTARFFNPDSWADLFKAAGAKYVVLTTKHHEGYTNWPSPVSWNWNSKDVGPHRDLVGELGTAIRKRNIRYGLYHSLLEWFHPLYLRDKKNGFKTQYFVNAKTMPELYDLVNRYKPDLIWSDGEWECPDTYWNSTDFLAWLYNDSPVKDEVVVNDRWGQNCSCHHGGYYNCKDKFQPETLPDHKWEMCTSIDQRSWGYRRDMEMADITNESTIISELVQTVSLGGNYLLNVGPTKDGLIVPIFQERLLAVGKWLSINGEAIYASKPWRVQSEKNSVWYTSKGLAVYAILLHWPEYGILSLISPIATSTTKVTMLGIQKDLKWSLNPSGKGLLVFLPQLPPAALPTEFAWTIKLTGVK
As to the kind of experiment: Inhibition of bovine kidney alpha-L-fucosidase assessed as reduction of p-nitrophenol release using p-nitrophenyl-glycoside as substrate at 1000 uM by spectrophotometric analysis. Type of assay: tissue-based.

The next assay deals with Escherichia coli. As to the kind of experiment: Inhibition of Escherichia coli beta-glucuronidase assessed as reduction of p-nitrophenol release using p-nitrophenyl-glycoside as substrate at 1000 uM by spectrophotometric analysis.
Assay [8] is described as follows: Inhibition of human lysosomal beta-glucosidase assessed as reduction of p-nitrophenol release using p-nitrophenyl-glycoside as substrate by spectrophotometric analysis. Type of assay: subcellular, Lysosome.
A short description of assay [9]: Inhibition of bovine liver beta-galactosidase assessed as reduction of p-nitrophenol release using p-nitrophenyl-glycoside as substrate by spectrophotometric analysis. Further details: species or system Bos taurus.
Assay [10] is filed under the species Bos taurus. As to the kind of experiment: Inhibition of bovine liver beta-glucuronidase assessed as reduction of p-nitrophenol release using p-nitrophenyl-glycoside as substrate at 1000 uM by spectrophotometric analysis.
Assay [11] can be described thus: Inhibition of Aspergillus niger amyloglucosidase assessed as reduction of p-nitrophenol release using p-nitrophenyl-glycoside as substrate by spectrophotometric analysis.
Assay [12] can be described thus: Inhibition of porcine kidney alpha-trehalase assessed as reduction of p-nitrophenol release using p-nitrophenyl-glycoside as substrate by spectrophotometric analysis. Format: tissue-based, Sus scrofa.
Assay [13] in a line: Inhibition of almond beta-glucosidase assessed as reduction of p-nitrophenol release using p-nitrophenyl-glycoside as substrate by spectrophotometric analysis. Further details: species or system Prunus dulcis.
Assay [14] can be described thus: Inhibition of yeast alpha-glucosidase assessed as reduction of p-nitrophenol release using p-nitrophenyl-glycoside as substrate by spectrophotometric analysis. The arrangement: species or system Saccharomyces cerevisiae.
For the next assay, the system named is Penicillium decumbens. The assay is described as follows: Inhibition of Penicillium decumbens alpha-L-rhamnosidase assessed as reduction of p-nitrophenol release using p-nitrophenyl-glycoside as substrate at 1000 uM by spectrophotometric analysis.
Assay [15] can be described thus: Inhibition of rice alpha-glucosidase assessed as reduction of p-nitrophenol release using p-nitrophenyl-glycoside as substrate by spectrophotometric analysis. Further details: species or system Oryza sativa.
The species entered for assay [16] is Bos taurus. The assay is described as follows: Inhibition of bovine liver beta-galactosidase assessed as reduction of p-nitrophenol release using p-nitrophenyl-glycoside as substrate at 1000 uM by spectrophotometric analysis.

Usually inhibition stands for how much of the control response was suppressed. As usually defined, the IC50 is the point on the concentration scale where inhibition reaches its midpoint.

Each structure is given as a SMILES string.

Sequence of Alpha-galactosidase (Coffea arabica) (Q42656 16-378 limits assumed): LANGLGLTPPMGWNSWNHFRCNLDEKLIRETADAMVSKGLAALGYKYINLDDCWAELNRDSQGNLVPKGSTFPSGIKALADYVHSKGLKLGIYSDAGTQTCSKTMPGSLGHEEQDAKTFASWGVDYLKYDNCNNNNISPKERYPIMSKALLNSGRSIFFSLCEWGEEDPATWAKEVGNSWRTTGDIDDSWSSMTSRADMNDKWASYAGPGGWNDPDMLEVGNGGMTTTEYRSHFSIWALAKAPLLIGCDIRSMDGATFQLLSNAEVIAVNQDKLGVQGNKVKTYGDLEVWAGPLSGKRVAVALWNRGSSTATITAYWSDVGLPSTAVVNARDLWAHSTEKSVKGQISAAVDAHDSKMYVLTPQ

Consider `O[C@H]1[C@H](CCCc2ccccc2)NC[C@@H]1O`, for which the inhibition in the assay with Helix pomatia was 5.2%; in assay [1], 27.8%; with Prunus dulcis, 48.8%; in assay [3] it was 0%; in the assay listed under Sus scrofa it was 0%; in the assay with Saccharomyces cerevisiae it was 30%. The inhibition stood at 42.9% with Oryza sativa; 0% in the assay with Aspergillus niger; 11.5% in [5]; 35% in the assay listed under Bos taurus [6]; 0% in assay [7]; 42.7% in the assay on Escherichia coli. Also, in the assay filed under Bos taurus [10], the inhibition was 0.3%. Further, the IC50 in assay [2] came out at 178 µM; in assay [4] it was 131 µM; in assay [8] it was 9.5 µM; in assay [9], 665 µM.
In the case of `OC[C@H]1NC[C@@H](O)[C@@H]1O`, the inhibition in the assay on Helix pomatia was found to be 13%; in [3], 4.1%; in the assay filed under Bos taurus [6] it was 7.9%; in the assay with Penicillium decumbens it was 13.5%; in assay [7], 9%; in the assay with Escherichia coli, 5.3%. Further, the inhibition in the assay listed under Bos taurus [10] turned out to be 6.3%; in the assay listed under Bos taurus [16], 11.4%. Further, the IC50 in assay [11] amounted to 355 µM; in [12], 11 µM; in assay [13] it was 967 µM; in assay [14] it was 2.5 µM; in assay [15], 87 µM; in assay [8], 340 µM.

Values taken from ChEMBL document CHEMBL5137043, “trans, trans-2-C-Aryl-3,4-dihydroxypyrrolidines as potent and selective β-glucosidase inhibitors: Pharmacological chaperones for Gaucher disease” (Eur J Med Chem, 2022).
